From PubChem BioAssay (NCI)
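96-well plates; 48 h exposure; 5 concentrations. Endpoints by linear interpolation between flanking doses. Not reached: highest tested concentration assigned. TGI is the concentration that stops growth completely.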 Where a SMILES comes first, the peptide text is derived from it. Bridges are numbered along the chain shown (N, C = ends). [ ]: non-standard residue; d: D form. The star is where a group is joined. PhAc = O=C(Cc1ccccc1)*

How the values were obtained:
Experiment in all cases: DTP human tumour cell line panel, 48 h
EKVX NSCLC = tested on: EKVX NSCLC
BT-549 breast = tested on: BT-549 breast
SK-MEL-5 melanoma = tested on: SK-MEL-5 melanoma
SF-268 CNS = tested on: SF-268 CNS
LOX IMVI melanoma = tested on: LOX IMVI melanoma
M14 melanoma = tested on: M14 melanoma
HOP-92 NSCLC = tested on: HOP-92 NSCLC
SK-MEL-28 melanoma = tested on: SK-MEL-28 melanoma
UACC-62 melanoma = tested on: UACC-62 melanoma
SN12C renal = tested on: SN12C renal
HCT-116 colon = tested on: HCT-116 colon
DU-145 prostate = tested on: DU-145 prostate
MDA-MB-231 breast = tested on: MDA-MB-231 breast

SMILES	TGI (EKVX NSCLC) [µM]	TGI (BT-549 breast) [µM]	TGI (SK-MEL-5 melanoma) [µM]	TGI (SF-268 CNS) [µM]	TGI (LOX IMVI melanoma) [µM]	TGI (M14 melanoma) [µM]	TGI (HOP-92 NSCLC) [µM]	TGI (SK-MEL-28 melanoma) [µM]	TGI (UACC-62 melanoma) [µM]	TGI (SN12C renal) [µM]	TGI (HCT-116 colon) [µM]	TGI (DU-145 prostate) [µM]	TGI (MDA-MB-231 breast) [µM]
O=C1CCCC2=C1CC1=C(CCCC1=O)N2c1ccccc1C(=O)O	> 100	> 100	> 100	> 100	> 100	> 100	> 100	> 100	> 100	> 100	–	–	–
CC1=C(C)CC(C#N)(C#N)C(C#N)(C#N)C1	> 10	–	> 10	> 10	> 10	> 10	> 6.48	> 10	> 10	> 10	> 7.32	> 10	> 10
Cc1ccc(/C=N/Nc2nc3ccccc3s2)s1	> 100	–	> 100	> 100	> 100	> 100	> 100	> 100	> 100	34.3	> 100	> 100	89.8
O=C(Cc1ccccc1)N[C@@H]1COC(=O)[C@@H]2CCCN2C(=O)[C@@H]2CCCN2C1=O (PhAc-[dS]-Pro-Pro; ester 1-C)	> 100	–	> 100	> 100	> 100	> 100	> 100	> 100	> 100	> 100	> 100	> 100	> 100
CCCCCN1CCN(c2ncccn2)CC1	> 100	–	> 100	> 100	> 100	> 100	> 100	> 100	> 100	> 100	> 100	> 100	> 100
Cn1c2c(c3ccccc31)CCN1OCC=C[C@@H](C(=O)O)[C@@H]21	> 100	–	> 100	> 100	> 100	> 100	> 100	> 100	> 100	> 100	> 100	> 100	> 100
O=c1c(-c2c(-c3ccccc3)oc3ccc(Cl)cc3c2=O)c(-c2ccccc2)oc2ccc(Cl)cc12	> 100	–	> 100	> 92.3	> 100	> 100	> 95	> 100	> 100	> 100	> 100	> 100	> 83.7
C=C[C@]1(O)CCC[C@]2(C)C(=O)CCC12C (stereo not given in full)	> 100	–	> 100	> 100	> 100	> 100	> 100	> 100	> 100	> 100	> 100	> 100	> 100
CC1(C)C(C#N)=[N+]([O-])C(C)(C)N1O	> 100	–	> 100	> 100	> 100	> 100	> 100	> 100	> 100	> 100	> 100	> 100	> 100
O=C1Oc2ccccc2C(=O)/C1=C/N1C(=O)/C(=C/c2ccc3c(c2)OCO3)SC1=S	> 100	–	29.8	32.6	> 58.8	31.9	–	36.8	> 47.7	51.6	> 51.2	49.1	44
CCOC(=O)[C@@H]1OC(c2ccccc2)O[C@H]1C(=O)OCC	> 100	–	> 100	> 100	> 100	> 100	> 100	> 100	> 100	> 100	> 100	> 100	> 100
CN(C)C(=S)N1C(=S)N(c2ccccc2)C(=Nc2ccccc2)C1=Nc1ccccc1	> 100	–	> 100	> 100	> 100	–	> 100	> 100	> 100	> 100	> 100	> 100	> 100
Cc1ccc2nc(N/N=C/c3ccc(C)s3)cc(C)c2c1	26.1	–	20.4	35.4	14.4	23.3	21	28.9	23.6	25.3	12.3	23	31.8
CCCCOCn1c(=O)[nH]c(=O)c2ccccc21	> 100	–	> 100	–	> 100	> 100	> 100	> 100	> 100	> 100	> 100	> 100	> 100
O=C(/C=C/c1ccc(O)c(O)c1)OCc1ccccc1	> 100	–	24.3	45.8	71.6	48.2	58	61.3	53.9	51.8	30.5	39.5	67.1
Cc1cc2nc3c(C#N)c(-c4ccccc4)/c(=C\Nc4ccc(Cl)cc4)c(=O)n3c2cc1C	> 100	> 100	> 100	> 100	> 100	> 100	–	> 100	–	> 100	> 100	–	> 100
